The values that follow come from patent publication US12234221B2, “Pyridine carboxamide compounds for inhibiting NAV1.8” (Lieber Institute, Inc., priority 2018, dated 2025).

Some results are limits rather than exact numbers.

This test deals with T1, human Nav1.8 (hNav1.8) ion channel (Homo sapiens, UniProt Q9Y5Y9).
T1 construct: expressed in transfected cells; host or cells: HEK293
T1 sequence (Q9Y5Y9 whole entry): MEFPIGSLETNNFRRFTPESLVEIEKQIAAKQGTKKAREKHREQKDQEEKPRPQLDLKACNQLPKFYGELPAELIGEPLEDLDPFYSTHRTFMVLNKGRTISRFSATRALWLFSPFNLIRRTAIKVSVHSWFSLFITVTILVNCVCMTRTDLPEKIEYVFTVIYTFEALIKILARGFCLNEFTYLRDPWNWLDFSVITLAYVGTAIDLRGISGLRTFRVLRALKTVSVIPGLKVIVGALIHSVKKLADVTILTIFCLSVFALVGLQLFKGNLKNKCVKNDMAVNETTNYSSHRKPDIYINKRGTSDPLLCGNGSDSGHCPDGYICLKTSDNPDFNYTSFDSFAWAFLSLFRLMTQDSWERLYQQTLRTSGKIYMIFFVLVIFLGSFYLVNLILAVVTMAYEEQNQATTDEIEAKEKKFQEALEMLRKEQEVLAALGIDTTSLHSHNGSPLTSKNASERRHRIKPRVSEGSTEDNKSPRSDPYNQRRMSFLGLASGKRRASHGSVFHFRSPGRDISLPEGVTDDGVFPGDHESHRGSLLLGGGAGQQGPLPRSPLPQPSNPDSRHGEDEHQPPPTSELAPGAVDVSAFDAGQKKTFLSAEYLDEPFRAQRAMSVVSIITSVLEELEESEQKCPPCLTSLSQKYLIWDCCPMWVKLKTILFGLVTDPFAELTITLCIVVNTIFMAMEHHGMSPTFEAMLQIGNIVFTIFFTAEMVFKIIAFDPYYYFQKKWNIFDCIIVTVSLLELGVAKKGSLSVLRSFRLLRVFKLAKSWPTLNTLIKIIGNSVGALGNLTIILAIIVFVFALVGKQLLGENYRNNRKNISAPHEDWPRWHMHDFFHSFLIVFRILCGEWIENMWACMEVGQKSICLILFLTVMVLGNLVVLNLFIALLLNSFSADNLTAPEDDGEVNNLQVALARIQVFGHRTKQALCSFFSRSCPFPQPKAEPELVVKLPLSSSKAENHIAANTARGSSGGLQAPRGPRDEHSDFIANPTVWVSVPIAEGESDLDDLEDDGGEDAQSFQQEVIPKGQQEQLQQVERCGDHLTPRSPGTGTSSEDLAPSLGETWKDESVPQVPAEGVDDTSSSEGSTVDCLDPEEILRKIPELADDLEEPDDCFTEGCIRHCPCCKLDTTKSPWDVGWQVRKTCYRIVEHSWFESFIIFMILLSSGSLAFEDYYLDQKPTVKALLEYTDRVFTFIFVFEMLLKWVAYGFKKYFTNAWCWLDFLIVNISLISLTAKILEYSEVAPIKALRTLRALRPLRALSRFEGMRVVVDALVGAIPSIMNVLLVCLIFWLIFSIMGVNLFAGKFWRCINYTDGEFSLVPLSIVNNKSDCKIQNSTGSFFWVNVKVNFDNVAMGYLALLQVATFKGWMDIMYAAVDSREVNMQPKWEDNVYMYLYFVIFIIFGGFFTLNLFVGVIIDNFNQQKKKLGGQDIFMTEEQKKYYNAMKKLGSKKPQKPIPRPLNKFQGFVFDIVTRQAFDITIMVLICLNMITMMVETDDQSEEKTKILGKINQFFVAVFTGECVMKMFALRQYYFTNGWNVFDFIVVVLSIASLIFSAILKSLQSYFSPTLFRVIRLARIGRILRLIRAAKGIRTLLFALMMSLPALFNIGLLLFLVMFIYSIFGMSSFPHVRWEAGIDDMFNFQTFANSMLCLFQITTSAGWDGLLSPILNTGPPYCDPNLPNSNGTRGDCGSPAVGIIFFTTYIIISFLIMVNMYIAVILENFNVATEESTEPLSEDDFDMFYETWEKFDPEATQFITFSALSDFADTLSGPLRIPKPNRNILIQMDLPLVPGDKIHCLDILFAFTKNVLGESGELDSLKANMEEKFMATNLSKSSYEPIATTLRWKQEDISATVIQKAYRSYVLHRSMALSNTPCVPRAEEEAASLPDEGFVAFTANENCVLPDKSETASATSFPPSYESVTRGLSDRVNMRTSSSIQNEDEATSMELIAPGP
The test can be described thus: Nav1.8 channel inhibition, estimated IC50 (one or more of: fluorescence inhibition assay, PatchXpress, IonFlux HT automated patch clamp). The format is cell-based. The note with it: HEK293 cells stably expressing hNav1.8; method used per compound not stated; read-out: Activity range (estimated IC50). Here is the method: The ability of pyridine carboxamide derivatives exemplified above to inhibit the Nav1.8 channel was determined using one or more of the methods described below.
HEK Nav1.8 β1/β2 Stably Expressing Cell Line
A HEK293 cell line stably expressing the human Nav1.8 (hNav1.8) ion channel with β1/β2 subunits was constructed. The cell line is suitable for IC50 determination in fluorescence and electrophysiological based assays. It is also suitable to form mechanism of action pharmacology studies in electrophysiological assays. HEK293 Nav 1.8 cells are grown as adherent monolayers in DMEM/high glucose media, 10% fetal bovine serum, Na pyruvate (2 mM), Hepes (10 mM) with selection agents G418 (400 mg/L) and puromycin (0.5 mg/L) at 37 degrees C., 10% CO2.
Nav 1.8 Fluorescence Inhibition Assay
Compounds were made up to or supplied as a 10-mM stock solution using DMSO as the vehicle. Concentration-response curves were generated using a Matrix multichannel pipettor. Compound source plates were made by diluting 10 mM compound stocks to create 500 μM (100×) solutions in DMSO in 96-well v-bottom plates. Compounds were then serially diluted in 100% DMSO to generate a 5 point, 4-fold dilution scheme dose response curve. 2 μL of the 100× dose response curves was then added to preincubation and stimulation assay plates. 100 μL of pre-incubation buffer and 200 μL of stimulation buffer were then added to the plates resulting in a final assay test concentration range of 5 μM to 0.02 μM with a final DMSO concentration of 1%.
On the day of assay, plates were washed to remove cell culture media using 2K EBSS buffer (135 mM NaCl, 2 mM KCl, 5 mM Glucose, 2 mM CaCl2), 1 mM MgCl2, 10 mM HEPES, pH 7.4). The Na-sensitive fluorescent dye, Asante Natrium Green-2 (ANG-2) is incubated for 60 min to allow equilibration and then washed with 2K EBSS. Plates are the transferred to a fluorescence plate reader (FLIPR™, Molecular Devices) for fluorescence measurement using an excitation wavelength of 490 nm and an emission wavelength of 565 nm. Compounds are pre-incubated at for 5 min at final test concentration in the presence of ouabain (30 μM) to inhibit Na+ efflux through Na+/K+ exchanger. Following the pre-incubation phase, hNav1.8 channels are stimulated with 10 μM of the pyrethroid deltamethrin to prevent channel inactivation. The assay was run for 15 min with vehicle and 30 μM tetracaine serving as negative and positive controls, respectively. The peak change in fluorescence relative to negative and positive control wells was calculated and fit with a logistic equation to determine IC50.
PatchXpress Nav 1.8 Inhibition Assay
HEK-Nav1.8 β1/β2 cells were recorded in whole cell patch-clamp using the PatchXpress automated patch clamp platforms (Molecular Devices). Cells suspensions were obtained by trypsinization of adherent monolayers, followed by gentle rocking for minimally 30 min. Compounds were prepared from 10 mM DMSO stocks.
Nav1.8 channel variants were evaluated using Protocol 1 (FIG. 2) in which cells were initially voltage clamped at a holding potential of −100 mV to maintain Nav1.8 in a closed resting state. After current amplitude becomes stable, the mid-point voltage of steady state inactivation was determined for each cell using a series of 5 sec conditioning steps to increasingly depolarized voltages (−100 to 0 mV) The holding potential was then reset to a voltage that produces ˜50% inactivation (Vhalf−set automatically via PatchXpress scripts) so that closed and inactivated channel inhibition can be assessed. Protocol 1 was run at a frequency of 0.1 Hz until current amplitude is steady (automatically determined by PatchXpress scripts). The effect of test reagent on Nav current amplitude was monitored using custom PatchXpress stability scripts which determines the timing of compound addition and washout. Data were processed and analyzed using DataXpress 2.0 (Molecular Devices). […]
`CS(=O)(=O)c1cccc(NC(=O)c2cc(C(F)(F)F)cnc2Oc2cc(Cl)cc(Cl)c2)c1` [Example 56, 2-(3,5-dichlorophenoxy)-N-(3-methylsulfonyl-phenyl)-5-(trifluoromethyl)pyridine-3-carboxamide]: the half-maximal inhibitory concentration (IC50) was > 1000 nM.
With `CS(=O)(=O)c1cccc(NC(=O)c2cc(C(F)(F)F)cnc2Oc2ccc(C(F)(F)F)nc2)c1` [Example 57, N-(3-methylsulfonyl-phenyl)-5-(trifluoromethyl)-2-[[6-(trifluoromethyl)-3-pyridyl]oxy]pyridine-3-carboxamide] the figure was > 1000 nM.
Take `CS(=O)(=O)c1cccc(NC(=O)c2cc(C(F)(F)F)cnc2Oc2cccc3scnc23)c1` [Example 58, 2-(1,3-benzothiazol-4-yloxy)-N-(3-methylsulfonyl-phenyl)-5-(trifluoromethyl)pyridine-3-carboxamide]: the concentration for half-maximal inhibition (IC50) is > 1000 nM.
With `CS(=N)(=O)c1cccc(NC(=O)c2cc(C(F)(F)F)cnc2Oc2ccc(OC(F)F)cc2)c1` (stereo not shown) [Example 59, 2-[4-(difluoromethoxy)phenoxy]-N-[3-(methylsulfonimidoyl)phenyl]-5-(trifluoromethyl)pyridine-3-carboxamide] the figure was < 500 nM; with `CS(=N)(=O)c1cccc(NC(=O)c2cc(C(F)(F)F)cnc2Oc2ccc(F)cc2Cl)c1` (stereo not shown) [Example 60, 2-(2-chloro-4-fluoro-phenoxy)-N-[3-(methylsulfonimidoyl)phenyl]-5-(trifluoromethyl)pyridine-3-carboxamide], < 500 nM.
With `COc1ccc(Oc2ncc(C(F)(F)F)cc2C(=O)Nc2cccc(S(C)(=N)=O)c2)c(Cl)c1` (stereo not shown) [Example 61, 2-(2-chloro-4-methoxy-phenoxy)-N-[3-(methylsulfonimidoyl)phenyl]-5-(trifluoromethyl)pyridine-3-carboxamide] the figure was < 500 nM; with `CS(=N)(=O)c1cccc(NC(=O)c2cc(C(F)(F)F)cnc2Oc2ccccc2Cl)c1` (stereo not shown) [Example 62, 2-(2-chlorophenoxy)-N-[3-(methylsulfonimidoyl)phenyl]-5-(trifluoromethyl)pyridine-3-carboxamide], < 500 nM; with `O=C(Nc1ccnnc1)c1cc(C(F)(F)F)cnc1Oc1ccc(Cl)cc1Cl` [Example 63, 2-(2,4-dichlorophenoxy)-N-pyridazin-4-yl-5-(trifluoromethyl)pyridine-3-carboxamide], 500 to 1000 nM.
With `O=C(Nc1ccnnc1)c1cc(C(F)(F)F)cnc1Oc1ccc(OC(F)F)cc1` [Example 64, 2-[4-(difluoromethoxy)phenoxy]-N-pyridazin-4-yl-5-(trifluoromethyl)pyridine-3-carboxamide] the figure was > 1000 nM.
For the compound `COc1ccc(Oc2ncc(C(F)(F)F)cc2C(=O)Nc2ccnnc2)c(Cl)c1` [Example 65, 2-(2-chloro-4-methoxy-phenoxy)-N-pyridazin-4-yl-5-(trifluoromethyl)pyridine-3-carboxamide], the IC50 is > 1000 nM.
For `COc1cc(F)ccc1Oc1nc(C(F)(F)F)ccc1C(=O)Nc1cccc(S(C)(=O)=O)c1` [Example 66, 2-(4-fluoro-2-methoxy-phenoxy)-N-(3-methylsulfonylphenyl)-6-(trifluoromethyl)pyridine-3-carboxamide] the value was < 500 nM; for `COc1cc(F)ccc1Oc1cc(C(F)(F)F)ncc1C(=O)Nc1cccc(S(C)(=O)=O)c1` [Example 67, 4-(4-fluoro-2-methoxy-phenoxy)-N-(3-methylsulfonylphenyl)-6-(trifluoromethyl)pyridine-3-carboxamide], < 500 nM; for `COc1cc(F)ccc1Oc1cc(C(F)(F)F)ncc1C(=O)Nc1cccc([S+](C)[O-])c1` (stereo not shown) [Example 68, 4-(4-fluoro-2-methoxy-phenoxy)-N-(3-methylsulfinylphenyl)-6-(trifluoromethyl)pyridine-3-carboxamide], < 500 nM.
Take `COc1cc(F)ccc1Oc1cc(C(F)(F)F)ncc1C(=O)Nc1cc(S(C)(=O)=O)ccc1F` [Example 69, 4-(4-fluoro-2-methoxy-phenoxy)-N-(2-fluoro-5-methylsulfonyl-phenyl)-6-(trifluoromethyl)pyridine-3-carboxamide]: the IC50 is < 500 nM.
With `CN=S(C)(=O)c1cccc(NC(=O)c2cnc(C(F)(F)F)cc2Oc2ccc(F)cc2OC)c1` (stereo not shown) [Example 70, N-[3-(N,S-dimethylsulfonimidoyl)phenyl]-4-(4-fluoro-2-methoxy-phenoxy)-6-(trifluoromethyl)pyridine-3-carboxamide] the figure was < 500 nM.
For `COc1cc(F)ccc1Oc1cc(C(F)(F)F)ncc1C(=O)Nc1ccnnc1` [Example 71, 4-(4-fluoro-2-methoxy-phenoxy)-N-pyridazin-4-yl-6-(trifluoromethyl)pyridine-3-carboxamide] the value was < 500 nM.
`COc1cc(F)ccc1Oc1cc(C(F)(F)F)ncc1C(=O)Nc1ccncc1` [Example 72, 4-(4-fluoro-2-methoxy-phenoxy)-N-(4-pyridyl)-6-(trifluoromethyl)pyridine-3-carboxamide]: the IC50 was < 500 nM.
With `CN(C)c1cc(NC(=O)c2cnc(C(F)(F)F)cc2Oc2ccc(OC(F)(F)F)cc2Cl)ccn1` [Example 73, 4-[2-chloro-4-(trifluoromethoxy)phenoxy]-N-[2-(dimethylamino)-4-pyridyl]-6-(trifluoromethyl)pyridine-3-carboxamide] the figure was > 1000 nM; with `CS(=O)(=O)c1cccc(NC(=O)c2cnc(C(F)(F)F)cc2Oc2ccc(OC(F)(F)F)cc2Cl)c1` [Example 74, 4-[2-chloro-4-(trifluoromethoxy)phenoxy]-N-(3-methylsulfonylphenyl)-6-(trifluoromethyl)pyridine-3-carboxamide], < 500 nM; with `C[S+]([O-])c1cccc(NC(=O)c2cnc(C(F)(F)F)cc2Oc2ccc(OC(F)(F)F)cc2Cl)c1` (stereo not shown) [Example 75, 4-[2-chloro-4-(trifluoromethoxy)phenoxy]-N-(3-methylsulfinylphenyl)-6-(trifluoromethyl)pyridine-3-carboxamide], < 500 nM.
With `CN(C)S(=O)(=O)c1cccc(NC(=O)c2cnc(C(F)(F)F)cc2Oc2ccc(OC(F)(F)F)cc2Cl)c1` [Example 76, 4-[2-chloro-4-(trifluoromethoxy)phenoxy]-N-[3-(dimethylsulfamoyl)phenyl]-6-(trifluoromethyl)pyridine-3-carboxamide] the figure was 500 to 1000 nM; with `CS(=O)(=O)c1ccc(F)c(NC(=O)c2cnc(C(F)(F)F)cc2Oc2ccc(OC(F)(F)F)cc2Cl)c1` [Example 77, 4-[2-chloro-4-(trifluoromethoxy)phenoxy]-N-(2-fluoro-5-methylsulfonyl-phenyl)-6-(trifluoromethyl)pyridine-3-carboxamide], < 500 nM; with `O=C(Nc1cccnc1)c1cnc(C(F)(F)F)cc1Oc1ccc(OC(F)(F)F)cc1Cl` [Example 78, 4-[2-chloro-4-(trifluoromethoxy)phenoxy]-N-(3-pyridyl)-6-(trifluoromethyl)pyridine-3-carboxamide], < 500 nM.
With `O=C(Nc1ccncc1)c1cnc(C(F)(F)F)cc1Oc1ccc(OC(F)(F)F)cc1Cl` [Example 79, 4-[2-chloro-4-(trifluoromethoxy)phenoxy]-N-(4-pyridyl)-6-(trifluoromethyl)pyridine-3-carboxamide] the figure was < 500 nM; with `CS(=N)(=O)c1cccc(NC(=O)c2cnc(C(F)(F)F)cc2Oc2ccc(OC(F)(F)F)cc2Cl)c1` (stereo not shown) [Example 80, 4-[2-chloro-4-(trifluoromethoxy)phenoxy]-N-[3-(methylsulfonimidoyl)phenyl]-6-(trifluoromethyl)pyridine-3-carboxamide], < 500 nM.
